Test results as given in PubChem BioAssay AID1259407 (Chemical Carcinogenesis Research Information System (CCRIS), 2018).
Activity calls are given as the source filed them. How the calls were made is not given here.

Test system: CCRIS mutagenicity, Ames/micronucleus/aberration tests
Assay: CCRIS mutagenicity studies
[1] = Test System: AMES SALMONELLA TYPHIMURIUM, Strain/Indicator: TA98, Metabolic Activation: HAMSTER, LIVER, S-9, AROCLOR 1254 (10%), Method: PREINCUBATION
[2] = Test System: AMES SALMONELLA TYPHIMURIUM, Strain/Indicator: TA98, Metabolic Activation: NONE, Method: PREINCUBATION
[3] = Test System: AMES SALMONELLA TYPHIMURIUM, Strain/Indicator: TA98, Metabolic Activation: NONE, Method: STANDARD PLATE
[4] = Test System: AMES SALMONELLA TYPHIMURIUM, Strain/Indicator: TA98, Metabolic Activation: RAT, LIVER, S-9, AROCLOR 1254 (10%), Method: PREINCUBATION
[5] = Test System: AMES SALMONELLA TYPHIMURIUM, Strain/Indicator: TA100, Metabolic Activation: NONE, Method: PREINCUBATION
[6] = Test System: AMES SALMONELLA TYPHIMURIUM, Strain/Indicator: TA100, Metabolic Activation: NONE, Method: STANDARD PLATE
[7] = Test System: AMES SALMONELLA TYPHIMURIUM, Strain/Indicator: TA1535, Metabolic Activation: HAMSTER, LIVER, S-9, AROCLOR 1254 (10%), Method: PREINCUBATION
[8] = Test System: AMES SALMONELLA TYPHIMURIUM, Strain/Indicator: TA1535, Metabolic Activation: NONE, Method: PREINCUBATION
[9] = Test System: AMES SALMONELLA TYPHIMURIUM, Strain/Indicator: TA1535, Metabolic Activation: RAT, LIVER, S-9, AROCLOR 1254 (10%), Method: PREINCUBATION
[10] = Test System: AMES SALMONELLA TYPHIMURIUM, Strain/Indicator: TA1537, Metabolic Activation: NONE, Method: PREINCUBATION

Oc1c(Cl)ccc(Cl)c1Cl
mutagenic call (End Point: IN VITRO CHROMOSOMAL ABERRATIONS, Test System: CHINESE HAMSTER LUNG CELLS (CHL), Metabolic Activation: RAT, LIVER, S-9, KC-400): active; positive (structural changes) | mutagenic call (End Point: IN VITRO CHROMOSOMAL ABERRATIONS, Test System: CHINESE HAMSTER OVARY CELLS (CHO), Metabolic Activation: NONE): active; positive (structural changes) | mutagenic call (End Point: IN VITRO CHROMOSOMAL ABERRATIONS, Test System: CHINESE HAMSTER OVARY CELLS (CHO), Metabolic Activation: RAT, LIVER, S-9, AROCLOR 1254): active; positive (structural changes) | mutagenic call (Test System: AMES SALMONELLA TYPHIMURIUM, Strain/Indicator: TA97, Metabolic Activation: HAMSTER, LIVER, S-9, AROCLOR 1254 (10%), Method: PREINCUBATION): inactive; negative | mutagenic call (Test System: AMES SALMONELLA TYPHIMURIUM, Strain/Indicator: TA97, Metabolic Activation: HAMSTER, LIVER, S-9, AROCLOR 1254 (30%), Method: PREINCUBATION): inactive; negative | mutagenic call (Test System: AMES SALMONELLA TYPHIMURIUM, Strain/Indicator: TA97, Metabolic Activation: NONE, Method: PREINCUBATION): inactive; negative | mutagenic call (Test System: AMES SALMONELLA TYPHIMURIUM, Strain/Indicator: TA97, Metabolic Activation: NONE, Method: STANDARD PLATE): inactive; negative | mutagenic call (Test System: AMES SALMONELLA TYPHIMURIUM, Strain/Indicator: TA97, Metabolic Activation: RAT, LIVER, S-9, AROCLOR 1254 (10%), Method: PREINCUBATION): inactive; negative | mutagenic call (Test System: AMES SALMONELLA TYPHIMURIUM, Strain/Indicator: TA97, Metabolic Activation: RAT, LIVER, S-9, AROCLOR 1254 (30%), Method: PREINCUBATION): inactive; negative | mutagenic call (Test System: AMES SALMONELLA TYPHIMURIUM, Strain/Indicator: TA97, Metabolic Activation: RAT, LIVER, S-9, AROCLOR 1254, Method: STANDARD PLATE): inactive; negative | mutagenic call [1]: inactive; negative | mutagenic call (Test System: AMES SALMONELLA TYPHIMURIUM, Strain/Indicator: TA98, Metabolic Activation: HAMSTER, LIVER, S-9, AROCLOR 1254 (30%), Method: PREINCUBATION): inactive; negative | mutagenic call [2]: inactive; negative | mutagenic call [3]: inactive; negative | mutagenic call [4]: inactive; negative | mutagenic call (Test System: AMES SALMONELLA TYPHIMURIUM, Strain/Indicator: TA98, Metabolic Activation: RAT, LIVER, S-9, AROCLOR 1254 (30%), Method: PREINCUBATION): inactive; negative | mutagenic call (Test System: AMES SALMONELLA TYPHIMURIUM, Strain/Indicator: TA98, Metabolic Activation: RAT, LIVER, S-9, AROCLOR 1254, Method: STANDARD PLATE): active; positive | mutagenic call (Test System: AMES SALMONELLA TYPHIMURIUM, Strain/Indicator: TA100, Metabolic Activation: HAMSTER, LIVER, S-9, AROCLOR 1254 (10%), Method: PREINCUBATION): inactive; negative | mutagenic call (Test System: AMES SALMONELLA TYPHIMURIUM, Strain/Indicator: TA100, Metabolic Activation: HAMSTER, LIVER, S-9, AROCLOR 1254 (30%), Method: PREINCUBATION): inactive; negative | mutagenic call [5]: inactive; negative | mutagenic call [6]: inactive; negative | mutagenic call (Test System: AMES SALMONELLA TYPHIMURIUM, Strain/Indicator: TA100, Metabolic Activation: RAT, LIVER, S-9, AROCLOR 1254 (10%), Method: PREINCUBATION): inactive; negative | mutagenic call (Test System: AMES SALMONELLA TYPHIMURIUM, Strain/Indicator: TA100, Metabolic Activation: RAT, LIVER, S-9, AROCLOR 1254 (30%), Method: PREINCUBATION): inactive; negative | mutagenic call (Test System: AMES SALMONELLA TYPHIMURIUM, Strain/Indicator: TA100, Metabolic Activation: RAT, LIVER, S-9, AROCLOR 1254, Method: STANDARD PLATE): inactive; negative | mutagenic call (Test System: AMES SALMONELLA TYPHIMURIUM, Strain/Indicator: TA104, Metabolic Activation: NONE, Method: STANDARD PLATE): inactive; negative | mutagenic call (Test System: AMES SALMONELLA TYPHIMURIUM, Strain/Indicator: TA104, Metabolic Activation: RAT, LIVER, S-9, AROCLOR 1254, Method: STANDARD PLATE): inactive; negative | mutagenic call [7]: inactive; negative | mutagenic call (Test System: AMES SALMONELLA TYPHIMURIUM, Strain/Indicator: TA1535, Metabolic Activation: HAMSTER, LIVER, S-9, AROCLOR 1254 (30%), Method: PREINCUBATION): inactive; negative | mutagenic call [8]: inactive; negative | mutagenic call [9]: inactive; negative | mutagenic call (Test System: AMES SALMONELLA TYPHIMURIUM, Strain/Indicator: TA1535, Metabolic Activation: RAT, LIVER, S-9, AROCLOR 1254 (30%), Method: PREINCUBATION): inactive; negative | mutagenic call (Test System: AMES SALMONELLA TYPHIMURIUM, Strain/Indicator: TA1537, Metabolic Activation: HAMSTER, LIVER, S-9, AROCLOR 1254 (30%), Method: PREINCUBATION): inactive; negative | mutagenic call [10]: inactive; negative | mutagenic call (Test System: AMES SALMONELLA TYPHIMURIUM, Strain/Indicator: TA1537, Metabolic Activation: RAT, LIVER, S-9, AROCLOR 1254 (30%), Method: PREINCUBATION): inactive; negative

Cc1ccc(C)c2c1[nH]c1ccccc12
mutagenic call [3]: inactive; negative | mutagenic call (Test System: AMES SALMONELLA TYPHIMURIUM, Strain/Indicator: TA98, Metabolic Activation: RAT LIVER S-9, AROCLOR 1254, Method: STANDARD PLATE): active; positive | mutagenic call [6]: inactive; negative | mutagenic call (Test System: AMES SALMONELLA TYPHIMURIUM, Strain/Indicator: TA100, Metabolic Activation: RAT LIVER S-9, AROCLOR 1254, Method: STANDARD PLATE): inactive; negative

O=C1N(CO)C(O)C(O)N1CO (stereo unspecified)
mutagenic call (Test System: AMES SALMONELLA TYPHIMURIUM, Strain/Indicator: TA98, Metabolic Activation: HAMSTER, LIVER, AROCLOR 1254 (10%), Method: PREINCUBATION): inactive; negative | mutagenic call [1]: inactive; negative | mutagenic call [4]: inactive; negative | mutagenic call [5]: inactive; negative | mutagenic call [7]: inactive; negative | mutagenic call [8]: inactive; negative | mutagenic call [9]: inactive; negative | mutagenic call (Test System: AMES SALMONELLA TYPHIMURIUM, Strain/Indicator: TA1537, Metabolic Activation: HAMSTER, LIVER, S-9, AROCLOR 1254 (10%), Method: PREINCUBATION): inactive; negative | mutagenic call [10]: inactive; negative | mutagenic call (Test System: AMES SALMONELLA TYPHIMURIUM, Strain/Indicator: TA1537, Metabolic Activation: RAT, LIVER, S-9, AROCLOR 1254 (10%), Method: PREINCUBATION): inactive; negative

O[C@H]1[C@@H]2O[C@@H]2c2c(ccc3cc4ccc5ccccc5c4nc23)[C@@H]1O
mutagenic call [2]: active; positive | mutagenic call [5]: active; positive | mutagenic call (Test System: CHINESE HAMSTER V-79, Strain/Indicator: V-79/8-AZAGUANINE, Metabolic Activation: NONE, Method: STANDARD PLATE): active; positive

Nc1cc([N+](=O)[O-])c(CO)c([N+](=O)[O-])c1
mutagenic call (End Point: In vitro chromosomal aberrations, Test System: V79 Chinese hamster fibroblasts, Metabolic Activation: None): inactive; negative | mutagenic call (Test System: Ames Salmonella typhimurium, Strain/Indicator: TA98, Metabolic Activation: None, Method: Standard plate): active; positive | mutagenic call (Test System: Ames Salmonella typhimurium, Strain/Indicator: TA98, Metabolic Activation: Rat, Liver, S-9, Method: Standard plate): active; positive | mutagenic call (Test System: Ames Salmonella typhimurium, Strain/Indicator: TA98NR, Metabolic Activation: None, Method: Standard plate): active; positive, ta98nr is the nitroreductase-deficient derivative of ta98. | mutagenic call (Test System: Ames Salmonella typhimurium, Strain/Indicator: TA100, Metabolic Activation: None, Method: Standard plate): active; positive | mutagenic call (Test System: Ames Salmonella typhimurium, Strain/Indicator: TA100, Metabolic Activation: Rat, Liver, S-9, Method: Standard plate): active; positive

CCC(C)c1ccc(/C=C/c2ccc(N)cc2)cc1 (stereo unspecified)
mutagenic call [3]: inactive; negative | mutagenic call (Test System: AMES SALMONELLA TYPHIMURIUM, Strain/Indicator: TA98, Metabolic Activation: RAT, LIVER, S-9, AROCLOR, Method: STANDARD PLATE): active; positive | mutagenic call [6]: inactive; negative | mutagenic call (Test System: AMES SALMONELLA TYPHIMURIUM, Strain/Indicator: TA100, Metabolic Activation: RAT, LIVER, S-9, AROCLOR, Method: STANDARD PLATE): active; positive
